The nature of this data set: Heat accelerated stability assay under a neutral condition. Type of data set: physicochemical. The conditions noted are these: pH about 7.4, 40°C; for Changes in characteristics or properties, 0d / Changes in characteristics or properties, 7d: 1 mg/mL, phosphate; for Concentration change (7d-0d)/%: Day 7 vs Day 0, reversed phase chromatography; for Purity Change% (7d-0d) / Purity Change% (26d-0d): purity from reversed phase chromatography-214 nm; for Purity Change% (7d-0d): Day 7 vs Day 0; for Purity Change% (26d-0d): Day 26 vs Day 0. On the procedure: The lyophilized powder (1 mg/mL) of calcitonin analogues or derivatives prepared in accordance with the method of Example 1 were mixed with sodium dihydrogen phosphate (1.42 mg/mL) and dissolved in ultrapure water in the indicated mass-volume ratios. After adjusting pH to about 7.4 with hydrochloric acid/sodium hydroxide, the solution was filtered into a sterilized vial in a clean bench using a 0.22 µm sterile filter. The vial was then capped and placed into the stability test chamber at 40°C. Detections were made on Days 7 (7d) and 26 (26d), and during the assay, changes in the characteristics and properties of the polypeptides were observed and recorded. The sample was then centrifuged for 3 min at 10000 rpm at 4°C, and the supernatant was transferred to a liquid phase sample vial for detecting the concentration and purity of the polypeptides using liquid phase chromatography described as below, wherein the concentration of the polypeptide = peak area/injection volume/extinction coefficient/60×flow rate, and the purity of the polypeptide = target peak area/total peak area× 100%.
Conditions of the reversed phase chromatography Flow rate: 1.0 ml/min; Autosampler temperature: 15°C; Column temperature: 25°C; Detection wavelengths: 280 nm and 214 nm; Mobile phase A: 100% H2O+0.05% TFA; Mobile phase B: 100% ACN; and Gradient of elution listed in Table 4: Table 4. Listing of the gradient of elution in the liquid phase chromatography
Results were shown below in Tables 5, 6, and 7. A difference of more than 5% in content as compared with the initial value was typically assumed (for example, as prescribed by the Chinese Pharmacopeia (2020 Edition)) to be a significant change. Within a reasonable margin of error, a decrease of less than 1% from the initial value to the detected content is denoted as "no change" below. Table 5. Changes in characteristics or properties in the heat accelerated stability assay

*1 amine or outer side, *2 acyl side, *3 side chain or, on linkers, in order; H or OH if unused. Where a SMILES comes first, the peptide text is derived from it. The star is where a group is joined. C22 diacid = O=C(O)CCCCCCCCCCCCCCCCCCCCC(=O)*; C20 diacid = O=C(O)CCCCCCCCCCCCCCCCCCC(=O)*; C18 diacid = O=C(O)CCCCCCCCCCCCCCCCC(=O)*; C16 diacid = O=C(O)CCCCCCCCCCCCCCC(=O)*; γGlu = O=C(O)[C@H](CCC(=O)[*:2])N[*:1]; Trx = NC[C@H]1CC[C@H](C(=O)O)CC1

Regarding `CC(C)C[C@H](NC(=O)[C@H](CCCNC(=N)N)NC(=O)CNC(=O)[C@H](CC(C)C)NC(=O)[C@@H](NC(=O)[C@H](C)NC(=O)[C@@H](NC(=O)[C@H](CO)NC(=O)[C@H](CC(C)C)NC(=O)[C@H](CCC(N)=O)NC(=O)[C@H](CO)NC(=O)[C@H](C)NC(=O)CC[C@H](NC(=O)CCCCCCCCCCCCCCCCCCCCC(=O)O)C(=O)O)[C@@H](C)O)C(C)C)C(=O)N[C@@H](CO)C(=O)N[C@@H](CC(=O)O)C(=O)N[C@@H](CCC(=O)O)C(=O)N[C@@H](CC(C)C)C(=O)N[C@@H](Cc1c[nH]cn1)C(=O)N[C@@H](CCCNC(=N)N)C(=O)N[C@@H](CC(C)C)C(=O)N[C@@H](CCC(N)=O)C(=O)N[C@@H](CC(=O)O)C(=O)N[C@@H](Cc1ccc(O)cc1)C(=O)N1CCC[C@H]1C(=O)N[C@@H](CCCNC(=N)N)C(=O)N[C@H](C(=O)N[C@@H](CC(=O)O)C(=O)N[C@H](C(=O)NCC(=O)N[C@@H](CO)C(=O)NCC(=O)N[C@@H](CO)C(=O)N1CCC[C@H]1C(N)=O)C(C)C)[C@@H](C)O` [M38] ({C22 diacid-γGlu}-ASQLSTAVLGRLSDELHRLQDYPRTDVGSGSP-NH2), the “Changes in characteristics or properties, 0d” value (“Changes … 0d” below) is “Clear”; the “Changes in characteristics or properties, 7d” value (from here on “Changes … 7d”) is listed as “Clear”; the “Concentration change (7d-0d)/%” value was “No change (a decrease of less than 1% from the initial value to the detected content is denoted as "no change")”; the “Purity Change% (7d-0d)” value is “No change (a decrease of less than 1% from the initial value to the detected content is denoted as "no change")”. The “Purity Change% (26d-0d)” value is given as “No change (a decrease of less than 1% from the initial value to the detected content is denoted as "no change")”.
In the case of `CC(C)C[C@H](NC(=O)[C@H](CCCNC(=N)N)NC(=O)CNC(=O)[C@H](CC(C)C)NC(=O)[C@@H](NC(=O)[C@H](C)NC(=O)[C@@H](NC(=O)[C@H](CO)NC(=O)[C@H](CC(C)C)NC(=O)[C@H](CCC(N)=O)NC(=O)[C@H](CO)NC(=O)[C@H](C)NC(=O)CC[C@H](NC(=O)CCCCCCCCCCCCCCC(=O)O)C(=O)O)[C@@H](C)O)C(C)C)C(=O)N[C@@H](CO)C(=O)N[C@@H](CC(=O)O)C(=O)N[C@@H](CCC(=O)O)C(=O)N[C@@H](CC(C)C)C(=O)N[C@@H](Cc1c[nH]cn1)C(=O)N[C@@H](CCCNC(=N)N)C(=O)N[C@@H](CC(C)C)C(=O)N[C@@H](CCC(N)=O)C(=O)N[C@@H](CC(=O)O)C(=O)N[C@@H](Cc1ccc(O)cc1)C(=O)N1CCC[C@H]1C(=O)N[C@@H](CCCNC(=N)N)C(=O)N[C@H](C(=O)N[C@@H](CC(=O)O)C(=O)N[C@H](C(=O)NCC(=O)N[C@@H](CO)C(=O)NCC(=O)N[C@@H](CO)C(=O)N1CCC[C@H]1C(N)=O)C(C)C)[C@@H](C)O` [M40] ({C16 diacid-γGlu}-ASQLSTAVLGRLSDELHRLQDYPRTDVGSGSP-NH2), the “Changes … 0d” value is “Clear”; the “Changes … 7d” value is given as “Clear”; the “Concentration change (7d-0d)/%” value is reported as -2.280%; the “Purity Change% (7d-0d)” value is -1.67%. Further, the “Purity Change% (26d-0d)” value is given as -4.82%.
For the compound `CC(C)C[C@H](NC(=O)[C@H](CCCNC(=N)N)NC(=O)CNC(=O)[C@H](CC(C)C)NC(=O)[C@@H](NC(=O)[C@H](C)NC(=O)[C@@H](NC(=O)[C@H](CO)NC(=O)[C@H](CC(C)C)NC(=O)[C@H](CCC(N)=O)NC(=O)[C@H](CO)NC(=O)[C@H](C)NC(=O)[C@H](CCC(=O)O)NC(=O)CCCCCCCCCCCCCCCCCCC(=O)O)[C@@H](C)O)C(C)C)C(=O)N[C@@H](CO)C(=O)N[C@@H](CC(=O)O)C(=O)N[C@@H](CCC(=O)O)C(=O)N[C@@H](CC(C)C)C(=O)N[C@@H](Cc1c[nH]cn1)C(=O)N[C@@H](CCCNC(=N)N)C(=O)N[C@@H](CC(C)C)C(=O)N[C@@H](CCC(N)=O)C(=O)N[C@@H](CC(=O)O)C(=O)N[C@@H](Cc1ccc(O)cc1)C(=O)N1CCC[C@H]1C(=O)N[C@@H](CCCNC(=N)N)C(=O)N[C@H](C(=O)N[C@@H](CC(=O)O)C(=O)N[C@H](C(=O)NCC(=O)N[C@@H](CO)C(=O)NCC(=O)N[C@@H](CO)C(=O)N1CCC[C@H]1C(N)=O)C(C)C)[C@@H](C)O` [M41] ({C20 diacid}-EASQLSTAVLGRLSDELHRLQDYPRTDVGSGSP-NH2), the “Changes … 0d” value was “Clear”; the “Changes … 7d” value was “Clear”; the “Concentration change (7d-0d)/%” value was -3.134%; the “Purity Change% (7d-0d)” value was -1.66%. Further, the “Purity Change% (26d-0d)” value is recorded as -5.98%.
With `CC(C)C[C@H](NC(=O)[C@H](CCCNC(=N)N)NC(=O)CNC(=O)[C@H](CC(C)C)NC(=O)[C@@H](NC(=O)[C@H](C)NC(=O)[C@@H](NC(=O)[C@H](CO)NC(=O)[C@H](CC(C)C)NC(=O)[C@H](CCC(N)=O)NC(=O)[C@H](CO)NC(=O)[C@H](C)NC(=O)[C@H]1CC[C@H](CNC(=O)CCCCCCCCCCCCCCCCCCC(=O)O)CC1)[C@@H](C)O)C(C)C)C(=O)N[C@@H](CO)C(=O)N[C@@H](CC(=O)O)C(=O)N[C@@H](CCC(=O)O)C(=O)N[C@@H](CC(C)C)C(=O)N[C@@H](Cc1c[nH]cn1)C(=O)N[C@@H](CCCNC(=N)N)C(=O)N[C@@H](CC(C)C)C(=O)N[C@@H](CCC(N)=O)C(=O)N[C@@H](CC(=O)O)C(=O)N[C@@H](Cc1ccc(O)cc1)C(=O)N1CCC[C@H]1C(=O)N[C@@H](CCCNC(=N)N)C(=O)N[C@H](C(=O)N[C@@H](CC(=O)O)C(=O)N[C@H](C(=O)NCC(=O)N[C@@H](CO)C(=O)NCC(=O)N[C@@H](CO)C(=O)N1CCC[C@H]1C(N)=O)C(C)C)[C@@H](C)O` [M45] ({C20 diacid-Trx}-ASQLSTAVLGRLSDELHRLQDYPRTDVGSGSP-NH2), the “Changes … 0d” value is given as “Clear”; the “Changes … 7d” value is “Clear”; the “Concentration change (7d-0d)/%” value is given as -2.670%; the “Purity Change% (7d-0d)” value was “No change (a decrease of less than 1% from the initial value to the detected content is denoted as "no change")”. In addition, the “Purity Change% (26d-0d)” value is listed as -1.77%.
Turning to `CC(C)C[C@H](NC(=O)[C@H](CCCNC(=N)N)NC(=O)CNC(=O)[C@H](CC(C)C)NC(=O)[C@@H](NC(=O)[C@H](C)NC(=O)[C@@H](NC(=O)[C@H](CO)NC(=O)[C@H](CC(C)C)NC(=O)[C@H](CCC(N)=O)NC(=O)[C@H](CO)NC(=O)[C@H](C)NC(=O)[C@H]1CC[C@H](CNC(=O)CCCCCCCCCCCCCCCCC(=O)O)CC1)[C@@H](C)O)C(C)C)C(=O)N[C@@H](CO)C(=O)N[C@@H](CC(=O)O)C(=O)N[C@@H](CCC(=O)O)C(=O)N[C@@H](CC(C)C)C(=O)N[C@@H](Cc1c[nH]cn1)C(=O)N[C@@H](CCCNC(=N)N)C(=O)N[C@@H](CC(C)C)C(=O)N[C@@H](CCC(N)=O)C(=O)N[C@@H](CC(=O)O)C(=O)N[C@@H](Cc1ccc(O)cc1)C(=O)N1CCC[C@H]1C(=O)N[C@@H](CCCNC(=N)N)C(=O)N[C@H](C(=O)N[C@@H](CC(=O)O)C(=O)N[C@H](C(=O)NCC(=O)N[C@@H](CO)C(=O)NCC(=O)N[C@@H](CO)C(=O)N1CCC[C@H]1C(N)=O)C(C)C)[C@@H](C)O` [M46] ({C18 diacid-Trx}-ASQLSTAVLGRLSDELHRLQDYPRTDVGSGSP-NH2), the “Changes … 0d” value is given as “Clear”; the “Changes … 7d” value was “Clear”; the “Concentration change (7d-0d)/%” value was “No change (a decrease of less than 1% from the initial value to the detected content is denoted as "no change")”; the “Purity Change% (7d-0d)” value is reported as “No change (a decrease of less than 1% from the initial value to the detected content is denoted as "no change")”. Besides, the “Purity Change% (26d-0d)” value is reported as -5.67%.
